Data published in patent publication US20060004197A1, “Sulfonamide-based compounds as protein tyrosine kinase inhibitors” (priority 2004, published 2006).

Tests used:
Assay type in all cases: biochemical
Recombinant human Src = target: T1, Recombinant human Src (Homo sapiens, UniProt P12931); experiment: Src tyrosine kinase activity, poly E4Y / 32P-ATP phosphorylation assay
T1 construct: made in house; host or cells: baculovirus-insect cell system

FGF receptor (FGFr) = experiment: FGFr tyrosine kinase activity, poly E4Y / 32P-ATP phosphorylation assay
Recombinant Csk = Recombinant Csk (Homo sapiens, UniProt P41240); experiment: Csk tyrosine kinase activity, poly E4Y / 32P-ATP phosphorylation assay
Sequence of Recombinant Csk (P41240 whole entry, species assumed): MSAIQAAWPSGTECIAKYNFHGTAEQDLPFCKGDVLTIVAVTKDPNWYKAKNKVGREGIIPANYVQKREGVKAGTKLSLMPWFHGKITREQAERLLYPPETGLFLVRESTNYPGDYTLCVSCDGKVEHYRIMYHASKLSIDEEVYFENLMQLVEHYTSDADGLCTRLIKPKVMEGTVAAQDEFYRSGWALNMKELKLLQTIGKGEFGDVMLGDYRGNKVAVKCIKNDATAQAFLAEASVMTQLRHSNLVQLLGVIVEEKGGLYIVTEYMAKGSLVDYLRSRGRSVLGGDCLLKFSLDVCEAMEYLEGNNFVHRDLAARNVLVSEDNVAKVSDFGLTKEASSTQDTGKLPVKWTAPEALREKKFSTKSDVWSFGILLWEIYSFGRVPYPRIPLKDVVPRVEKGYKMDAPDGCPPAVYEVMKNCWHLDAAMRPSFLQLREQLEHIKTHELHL

[1] = Table 3, Formula II compounds, NI = no inhibition at 100 μg/mL
[2] = Table 4, Formula III compounds, NI = no inhibition at 100 μg/mL
[3] = poly E4Y / 32P-ATP, Formula IV compounds

T1 sequence (P12931 whole entry): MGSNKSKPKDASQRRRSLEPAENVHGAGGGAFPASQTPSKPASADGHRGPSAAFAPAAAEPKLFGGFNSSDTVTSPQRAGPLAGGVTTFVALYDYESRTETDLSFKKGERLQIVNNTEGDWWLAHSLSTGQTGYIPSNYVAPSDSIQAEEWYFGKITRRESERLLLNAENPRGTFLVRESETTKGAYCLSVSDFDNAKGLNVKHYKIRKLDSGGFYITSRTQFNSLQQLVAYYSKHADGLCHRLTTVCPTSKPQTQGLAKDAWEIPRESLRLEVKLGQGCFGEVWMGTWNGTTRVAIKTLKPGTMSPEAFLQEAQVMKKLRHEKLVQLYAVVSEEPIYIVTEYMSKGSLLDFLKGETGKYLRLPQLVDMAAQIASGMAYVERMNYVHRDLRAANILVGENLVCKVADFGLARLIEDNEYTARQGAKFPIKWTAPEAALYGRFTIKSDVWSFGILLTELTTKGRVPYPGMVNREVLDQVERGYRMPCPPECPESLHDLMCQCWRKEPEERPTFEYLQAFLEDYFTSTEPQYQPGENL

SMILES | IC50 (Recombinant human Src; [1]) [µM] | IC50 (FGF receptor (FGFr); [1]) [µM] | IC50 (Recombinant Csk; [1]) [µM] | IC50 (Recombinant human Src; [3]) [µM] | IC50 (Recombinant Csk; [3]) [µM] | further results
COc1ccc(NS(=O)(=O)c2ccc(C)cc2)c(NS(=O)(=O)c2ccc(C)cc2)c1 [Compound 12v, N-[4-methoxy-2-(4-toluenesulfonylamino)-phenyl]-4-toluenesulfonamide] | 69 | 145 | > 224 | – | – | –
Cc1ccc(S(=O)(=O)Nc2ccc(Oc3ccc(Cl)cc3)cc2NS(=O)(=O)c2ccc(C)cc2)cc1 [Compound 12w, N-[4-(4-chloro-phenoxy)-2-(4-toluenesulfonylamino)-phenyl]-4-toluenesulfonamide] | 5.5 | 15.3 | 185 | – | – | –
Cc1ccc(S(=O)(=O)Nc2ccc(Oc3cccc(C(=O)O)c3)cc2NS(=O)(=O)c2ccc(C)cc2)cc1 [Compound 12x, N-[4-(3-carboxy-phenoxy)-2-(4-toluenesulfonylamino)-phenyl]-4-toluenesulfonamide] | 9.5 | 31 | 72 | – | – | –
Cc1ccc(S(=O)(=O)Nc2ccc(Oc3cccc(CC(=O)O)c3)cc2NS(=O)(=O)c2ccc(C)cc2)cc1 [Compound 12y, {3-[3,4-bis(4-toluenesulfonylamino)-phenoxy]-phenyl}-acetic acid] | 11 | 26 | 104 | – | – | –
Cc1ccc(S(=O)(=O)Nc2ccc(OCc3ccc(Cl)cc3)cc2NS(=O)(=O)c2ccc(C)cc2)cc1 [Compound 15b, N-[4-(4-chloro-benzyloxy)-2-(4-toluenesulfonylamino)-phenyl]-4-toluenesulfonamide] | 14 | 88 | > 180 | – | – | –
Cc1ccc(S(=O)(=O)Nc2ccc(OCc3cccc(Cl)c3)cc2NS(=O)(=O)c2ccc(C)cc2)cc1 [Compound 15c, N-[4-(3-chloro-benzyloxy)-2-(4-toluenesulfonylamino)-phenyl]-4-toluenesulfonamide] | 27 | 54 | > 180 | – | – | –
Cc1ccc(S(=O)(=O)Nc2ccc(OCc3ccccc3Cl)cc2NS(=O)(=O)c2ccc(C)cc2)cc1 [Compound 15d, N-[4-(2-chloro-benzyloxy)-2-(4-toluenesulfonylamino)-phenyl]-4-toluenesulfonamide] | 14 | 66 | 59 | – | – | –
COc1ccc(COc2ccc(NS(=O)(=O)c3ccc(C)cc3)c(NS(=O)(=O)c3ccc(C)cc3)c2)cc1 [Compound 15e, N-[4-(4-methoxy-benzyloxy)-2-(4-toluenesulfonylamino)-phenyl]-4-toluenesulfonamide] | 15 | 132 | > 181 | – | – | –
Cc1ccc(S(=O)(=O)Nc2ccc(OCC3CCCCC3)cc2NS(=O)(=O)c2ccc(C)cc2)cc1 [Compound 15f, N-[4-cyclohexylmethoxy-2-(4-toluenesulfonylamino)-phenyl]-4-toluenesulfonamide] | 42 | 91 | > 189 | – | – | –
Cc1ccc(S(=O)(=O)Nc2ccc(SCc3ccccc3Cl)cc2NS(=O)(=O)c2ccc(C)cc2)cc1 [Compound 15g, N-[4-(2-chloro-benzylsulfanyl)-2-(4-toluenesulfonylamino)-phenyl]-4-toluenesulfonamide] | 11 | – | > 174 | – | – | IC50 (μM) FGFr (FGF receptor (FGFr); [1]): NI (NI = no inhibition at 100 μg/mL)
Cc1ccc(S(=O)(=O)Nc2ccc(-n3cccn3)cc2NS(=O)(=O)c2ccc(C)cc2)cc1 [Compound 17a, N-[4-(pyrazol-1-yl)-2-(4-toluenesulfonylamino)-phenyl]-4-toluenesulfonamide] | 46 | 64 | 214 | – | – | –
Cc1ccc(S(=O)(=O)Nc2ccc(N(C)C)cc2NS(=O)(=O)c2ccc(C)cc2)cc1 [Compound 17c, N-[4-dimethylamino-2-(4-toluenesulfonylamino)-phenyl]-4-toluenesulfonamide] | 39 | 98 | > 218 | – | – | –
Cc1ccc(S(=O)(=O)Nc2ccc(-n3ccnc3)cc2NS(=O)(=O)c2ccc(C)cc2)cc1 [Compound 17d, N-[4-(imidazol-1-yl)-2-(4-toluenesulfonylamino)-phenyl]-4-toluenesulfonamide] | 51 | 3.1 | > 207 | – | – | –
Cc1ccc(S(=O)(=O)Nc2ccc(N3CCN(S(=O)(=O)c4ccc(C)cc4)CC3)cc2NS(=O)(=O)c2ccc(C)cc2)cc1 [Compound 17e, N-{2-(4-toluenesulfonylamino)-4-[4-(toluene-4-sulfonyl)-piperazin-1-yl]-phenyl}-4-toluenesulfonamide] | 19 | 21 | > 153 | – | – | –
Cc1ccc(S(=O)(=O)Nc2ccc(N3CCOCC3)cc2NS(=O)(=O)c2ccc(C)cc2)cc1 [Compound 17f, N-[4-(morpholin-4-yl)-2-(4-toluenesulfonylamino)-phenyl]-4-toluenesulfonamide] | 38 | 50 | > 199 | – | – | –
Cc1ccc(S(=O)(=O)Nc2ccc(-c3ccc(Cl)cc3)cc2NS(=O)(=O)c2ccc(C)cc2)cc1 [Compound 21, N-[4-(4-chloro-phenyl)-2-(4-toluenesulfonylamino)-phenyl]-4-toluenesulfonamide] | 8.6 | 23 | > 190 | – | – | –

SMILES | IC50 (Recombinant human Src; [1]) [µM] | IC50 (FGF receptor (FGFr); [1]) [µM] | IC50 (Recombinant Csk; [1]) [µM] | IC50 (Recombinant human Src; [3]) [µM] | IC50 (Recombinant Csk; [3]) [µM] | further results
COc1cccc(NS(=O)(=O)c2ccc(C)cc2)c1NS(=O)(=O)c1ccc(C)cc1 [Compound 22a, N-[3-methoxy-2-(4-toluenesulfonylamino)-phenyl]-4-toluenesulfonamide] | > 224 | – | > 224 | – | – | IC50 (μM) FGFr (FGF receptor (FGFr); [1]): NI (NI = no inhibition at 100 μg/mL)
Cc1ccc(S(=O)(=O)Nc2cc(N)c(Sc3ccc(Cl)cc3)cc2NS(=O)(=O)c2ccc(C)cc2)cc1 [Compound 23, N-[5-amino-4-(4-chloro-phenylsulfanyl)-2-(4-toluenesulfonylamino)-phenyl]-4-toluenesulfonamide] | – | – | – | – | – | IC50 (Recombinant human Src; [2]): 58 µM; IC50 (FGF receptor (FGFr); [2]): 56 µM; IC50 (Recombinant Csk; [2]): 280 µM
CC(=O)Nc1cc(NS(=O)(=O)c2ccc(C)cc2)c(NS(=O)(=O)c2ccc(C)cc2)cc1Sc1ccc(Cl)cc1 [Compound 24, N-[2-(4-chloro-phenylsulfanyl)-4,5-bis-(4-toluenesulfonylamino)-phenyl]-acetamide] | – | – | – | – | – | IC50 (Recombinant human Src; [2]): > 162 µM; IC50 (FGF receptor (FGFr); [2]): 515 µM; IC50 (Recombinant Csk; [2]): > 162 µM
COC(=O)c1cc(NS(=O)(=O)c2ccc(C)cc2)c(NS(=O)(=O)c2ccc(C)cc2)cc1Oc1ccc(OC)cc1 [Compound 33, Methyl 2-(4-methoxy-phenoxy)-4,5-bis-(4-toluenesulfonylamino)-benzoate] | – | – | – | – | – | IC50 (Recombinant human Src; [2]): 67 µM; IC50 (μM) FGFr (FGF receptor (FGFr); [2]): NI (NI = no inhibition at 100 μg/mL); IC50 (Recombinant Csk; [2]): > 168 µM
Cc1ccc(S(=O)(=O)Nc2cc(Br)c(Br)cc2NS(=O)(=O)c2ccc(C)cc2)cc1 [Compound 38a, N-[4,5-dibromo-2-(4-toluenesulfonylamino)-phenyl]-4-toluenesulfonamide] | – | – | – | – | – | IC50 (Recombinant human Src; [2]): 31 µM; IC50 (FGF receptor (FGFr); [2]): 110 µM; IC50 (Recombinant Csk; [2]): > 174 µM
COc1ccc(OCc2ccc(OS(=O)(=O)c3ccc(C)cc3)c(OS(=O)(=O)c3ccc(C)cc3)c2)cc1 [Compound 48, [4-(4-methoxy-phenoxymethyl)-2-(4-toluenesulfonyloxy)-phenyl]-4-toluenesulfonate] | – | – | – | 102 | > 180 | IC50 (μM) FGFr (FGF receptor (FGFr); [3]): NI (NI = no inhibition at 100 μg/mL)
Cc1ccc(C(=O)Nc2cc(Sc3ccc(Cl)cc3)c([N+](=O)[O-])cc2NC(=O)c2ccc(C)cc2)cc1 [Compound 51, N-[4-(4-chloro-phenylsulfanyl)-5-nitro-2-(4-toluoylamino)-phenyl]-4-toluamide] | – | – | – | 153 | 51 | IC50 (FGF receptor (FGFr); [3]): 40 µM
Cc1ccc(C(=O)Nc2ccc(Sc3ccc(Cl)cc3)cc2NC(=O)c2ccc(C)cc2)cc1 [Compound 52, N-[4-(4-chloro-phenylsulfanyl)-2-(4-toluoylamino)-phenyl]-4-toluamide] | – | – | – | 51 | > 205 | IC50 (μM) FGFr (FGF receptor (FGFr); [3]): NI (NI = no inhibition at 100 μg/mL)
Cc1ccc(S(=O)(=O)N(C)c2cc(Sc3ccc(Cl)cc3)c([N+](=O)[O-])cc2N(C)S(=O)(=O)c2ccc(C)cc2)cc1 [Compound 53, N-[4-(4-chloro-phenylsulfanyl)-5-nitro-2-(4-toluenesulfonyl-methyl-amino)-phenyl]-N-methyl-4-toluenesulfonamide] | – | – | – | 388 | 261 | IC50 (FGF receptor (FGFr); [3]): 254 µM
Cc1ccc(S(=O)(=O)Nc2cc([N+](=O)[O-])c(Sc3ccc(Cl)cc3)cc2N)cc1 [Compound 55, N-[2-amino-4-(4-chloro-phenylsulfanyl)-5-nitro-phenyl]-4-toluenesulfonamide] | – | – | – | 33 | > 222 | IC50 (FGF receptor (FGFr); [3]): 2.2 µM
Cc1ccc(C(=O)Nc2cc([N+](=O)[O-])c(Sc3ccc(Cl)cc3)cc2N)cc1 [Compound 56, N-[2-amino-4-(4-chloro-phenylsulfanyl)-5-nitro-phenyl]-4-toluamide] | – | – | – | > 242 | > 242 | IC50 (FGF receptor (FGFr); [3]): 410 µM
COc1ccc(Oc2ccc(NS(=O)(=O)c3ccc(C)cc3)c(O)c2)cc1 [Compound 59, N-[2-hydroxy-4-(4-methoxy-phenoxy)-phenyl]-4-toluenesulfonamide] | – | – | – | 65 | > 259 | IC50 (FGF receptor (FGFr); [3]): 65 µM
COc1ccc(Oc2ccc(NS(=O)(=O)c3ccc(C)cc3)c(OC)c2)cc1 [Compound 60, N-[2-methoxy-4-(4-methoxy-phenoxy)-phenyl]-4-toluenesulfonamide] | – | – | – | 129 | > 250 | IC50 (μM) FGFr (FGF receptor (FGFr); [3]): NI (NI = no inhibition at 100 μg/mL)
COc1ccc(Oc2ccc(N(C)S(=O)(=O)c3ccc(C)cc3)c(OC)c2)cc1 [Compound 61, N-[2-methoxy-4-(4-methoxy-phenoxy)-phenyl]-N-methyl-4-toluenesulfonamide] | – | – | – | 177 | > 242 | IC50 (μM) FGFr (FGF receptor (FGFr); [3]): NI (NI = no inhibition at 100 μg/mL)
COc1ccc(Oc2ccc(NS(=O)(=O)c3ccc(C)cc3)c(OCCO)c2)cc1 [Compound 62, N-[2-(2-hydroxy-ethoxy)-4-(4-methoxy-phenoxy)-phenyl]-4-toluenesulfonamide] | – | – | – | 126 | 15 | IC50 (μM) FGFr (FGF receptor (FGFr); [3]): NI (NI = no inhibition at 100 μg/mL)
